Experimental data: patent US12509468B2, “Quindoline compounds and uses thereof” (Arizona Board of Regents on Behalf of the University of …, priority 2019, dated 2025)

Tests used:
[1] = test system: DNA oligomer containing the G-quadruplex forming region of the c-Myc promoter; assay: FRET assay with c-Myc G-quadruplex oligomer (ED35); type: binding; conditions: concentration of ligand that decreases relative fluorescence of DNA FRET probe (1 μM) by 35%
Description: All synthesized ligands are examined with a DNA oligomer containing the G-quadruplex forming region of the c-Myc promoter (d[[…]]). The oligomer is tagged with a 5′-FAM fluorophore and a 3′-Black Hole Quencher molecule. 1 μM oligomer is linearized by heating at 95° C. for 5 minutes in a 50 mM Tris-Acetate buffer (pH 7.1) and slowly cooled back to room temperature, allowing formation of a G-quadruplex. Ligand is added to the oligomer probe at various concentrations spanning a 2-3 log range (high dose of 10 μM), allowed to incubate for 15 minutes in the dark and fluorescence is read on the BioTek Synergy HT spectrophotometer (Biotek, Winooski, VT). Drug autofluorescence is subtracted, data is normalized to oligomer only, and ED35s are calculated from data fit by a sigmoidal top-to-bottom nonlinear regression. ED35s<10 μM are further analyzed by circular dichroism (CD).
Experimental values for compounds tested according to one or more of the preceding examples are reported in the following table, including, ED35 is the concentration of ligand that decreases the relative fluorescence of a DNA FRET probe (1 μM) by 35% (identified as the threshold to minimize false negatives). ED35 values are reported in ranges: A: >10 μM; B: ≤10 μM.

[2] = test system: c-Myc oligomer (parallel G-quadruplex); assay: Circular dichroism melting (ΔTm) with 1 equivalent of ligand; type: binding; conditions: increase in melting temperature with 1 equivalent of ligand (DNA:Ligand=1:1)
Description: Non-labeled oligomers were prepared as described for FRET (Example VII). Ligands interacting with the c-Myc FRET oligomer are further examined for DNA secondary structure stabilization by CD (Sun et al., 2005). Briefly, the CD absorption spectra at 262 nm (parallel G-quadruplex) with increasing temperatures (4-95° C.) is examined in the absence and presence of 1 equivalence of ligand. TM is calculated by GraphPad Prizm using a top-to-bottom nonlinear fit, and ΔTM are calculated for each ligands.

VEGF G-quadruplex = assay: Competition dialysis, ligand bound to G-quadruplex; type: binding; conditions: 2 μM of compound
Description: (§1) Following the competition dialysis assay method of the Chaires group (Ragazzon et al., Methods 2007, 42, 173-182, which is hereby incorporated by reference in its entirety) using 2 μM of the referenced compound, the concentration of ligand bound to G-quadruplex structure for a variety of target genes were determined.

Bcl-2 G-quadruplex = assay: Competition dialysis, ligand bound to G-quadruplex; type: binding; conditions: 2 μM of compound
Description: as §1

hTERT G-quadruplex = assay: Competition dialysis, ligand bound to G-quadruplex; type: binding; conditions: 2 μM of compound
Description: as §1

HIF-1α G-quadruplex = assay: Competition dialysis, ligand bound to G-quadruplex; type: binding; conditions: 2 μM of compound
Description: as §1

Telomeric G-quadruplex = assay: Competition dialysis, ligand bound to G-quadruplex; type: binding; conditions: 2 μM of compound
Description: as §1

PDGFA G-quadruplex = assay: Competition dialysis, ligand bound to G-quadruplex; type: binding; conditions: 2 μM of compound
Description: as §1

PDGF-Rβ G-quadruplex = assay: Competition dialysis, ligand bound to G-quadruplex; type: binding; conditions: 2 μM of compound
Description: as §1

MYC G-quadruplex = assay: Competition dialysis, ligand bound to G-quadruplex; type: binding; conditions: 2 μM of compound
Description: as §1

[3] = test system: wild type AR promoter (AR G4) reporter; assay: Dual reporter, Gaussia luciferase driven by wild type AR promoter, in LNCaP; type: cell-based; conditions: LNCaP stable cells, 10 μM, 12 hours
Excerpt: (§2) To measure the dependency of GSA0932-mediated AR suppression on the AR G4-element, we generated a stable LNCaP cell lines expressing a dual reporter in which Gaussia luciferase is driven by either a wild type or a mutant AR promoter lacking the G4 element, and secreted alkaline phosphatase (SEAP) is driven by a constitutive promoter. […] However, GSA0932 had no effect on the G4-deleted AR reporter (FIG. 1E). […] Knocking down NCL expression alleviated the GSA0932 inhibitory activity against AR mRNA expression compared with control cells (FIG. 1G) (LNCaP cells were transfected with scrambled (Scr) or NCL siRNAs and […] post-transfection, cells were treated with DMSO, 10 μM GSA0932, or […] GSA1502 for 12 hours. Extracted RNA was analyzed for AR expression by RT-qPCR).

KLK3, also known as PSA = assay: mRNA expression of AR target gene by RT-qPCR; type: cell-based; conditions: 12 hours; 10 μM (LNCaP, C4-2), 5 μM (VCaP), 3 μM (22RV1)
PC3 cells = assay: Cell viability by MTT, 48 h; type: cell-based; conditions: Homo sapiens, PC-3, PC3, 48 h
Excerpt: (§3) Table V provides the IC50 values for GSA0932.

VCaP cells = assay: Cell viability by MTT, 48 h; type: cell-based; conditions: Homo sapiens
Excerpt: as §3

[4] = test system: RWPE non-malignant prostate cells; assay: Cell viability by MTT, 48 h; type: cell-based
Excerpt: as §3

22Rv1 cells = assay: Cell viability by MTT, 48 h; type: cell-based; conditions: Homo sapiens, 22Rv1, 48 h
Excerpt: as §3

LNCaP cells = assay: Cell viability by MTT, 48 h; type: cell-based; conditions: Homo sapiens
Excerpt: as §3

C4-2 cells = assay: Cell viability by MTT, 48 h; type: cell-based; conditions: C4-2, 48 h
Excerpt: as §3

AR = AR protein expression by immunoblotting in prostate cancer cells; type: cell-based; conditions: for concentration of maximal inhibitory activity on AR expression: 24 h of treatment
Description: (§4) This example provides specific compounds of the present invention suppress AR protein expression in androgen-dependent (LNCaP) and CRPC tumor cells ([…]) after a 24 h treatment at 10 μM (FIG. 1A) (Cell lysates from LNCaP and C4-2 cells treated with GSA compounds at a concentration of 10 μM for 24 hours were analyzed for expression of AR, NCL, and GAPDH by immunoblotting). GSA0932 suppress AR expression in 22RV1 and VCaP tumor cells, after 24 h of treatment reaching its maximal inhibitory activity at a concentration of 3 and 5 μM respectively (FIG. 1B) (Cell lysates from indicated prostate cancer cell lines treated with increasing concentrations GSA0932 for 24 hours were analyzed for AR, NCL, and GAPDH by immunoblotting). […] Values are means±s.e.m; p<0.05 (*); n=3).

AR mRNA = AR mRNA expression by RT-qPCR; type: cell-based; conditions: 10 μM; for AR mRNA: LNCaP and C4-2 cells, 12 and 24 hours
Description: as §4, §2

G4-deleted AR reporter = assay: Dual reporter, Gaussia luciferase driven by mutant AR promoter lacking the G4 element, in LNCaP; type: cell-based; conditions: LNCaP stable cells, 10 μM, 12 hours
Excerpt: as §2

[5] = test system: AR-positive tumor cells versus non-AR expressing cells; assay: Cytotoxic activity across prostate cell lines by MTT; type: cell-based; conditions: 48 h
Excerpt: as §3

[6] = test system: NCL bound to the G4-element of the AR promoter; assay: ChIP of NCL on AR G4; type: cell-based; conditions: LNCaP and C4-2 cells, 10 μM
ARv7 splice variant = ARv7 splice variant expression by immunoblotting in 22RV1; type: cell-based; conditions: 22RV1 cells, 24 h
Description: as §4

Compound: c1ccc2c3c4c(nc2c1)c1ccccc1n4CCCN3CCN1CCOCC1 [Compound 1]
- ED35 [1]: A (A: >10 μM)
- ΔTm [2]: A (A: 0-10° C.)

Compound: OC1CCN(CCN2CCCn3c4ccccc4c4nc5ccccc5c2c43)CC1 [Compound 2]
- ED35 [1]: A (A: >10 μM)
- ΔTm [2]: A (A: 0-10° C.)

Compound: c1ccc2c3c4c(nc2c1)c1ccccc1n4CCCN3CCCN1CCOCC1 [Compound 3]
- ED35 [1]: B (B: ≤10 μM)
- ΔTm [2]: A (A: 0-10° C.)
- concentration of ligand bound to G-quadruplex structure (VEGF G-quadruplex): 3.0 µM
- concentration of ligand bound to G-quadruplex structure (Bcl-2 G-quadruplex): 3.0 µM
- concentration of ligand bound to G-quadruplex structure (hTERT G-quadruplex): 10.5 µM
- concentration of ligand bound to G-quadruplex structure (HIF-1α G-quadruplex): 4.0 µM
- concentration of ligand bound to G-quadruplex structure (Telomeric G-quadruplex): 1.0 µM
- concentration of ligand bound to G-quadruplex structure (PDGFA G-quadruplex): 0.5 µM
- concentration of ligand bound to G-quadruplex structure (PDGF-Rβ G-quadruplex): 0.0 µM
- concentration of ligand bound to G-quadruplex structure (MYC G-quadruplex): 1.0 µM

Compound: OCCCN1CCCn2c3ccccc3c3nc4ccccc4c1c32 [Compound 4]
- ED35 [1]: B (B: ≤10 μM)
- ΔTm [2]: A (A: 0-10° C.)

Compound: CN1CCN(CCCN2CCCn3c4ccccc4c4nc5ccccc5c2c43)CC1 [Compound 5]
- ED35 [1]: A (A: >10 μM)
- ΔTm [2]: A (A: 0-10° C.)

Compound: Cl.c1ccc2c3c4c(nc2c1)c1ccccc1n4CCCN3CCCN1CCCCCC1 [Compound 6]
- ED35 [1]: A (A: >10 μM)
- ΔTm [2]: A (A: 0-10° C.)

Compound: OC1CCN(CCCN2CCCn3c4ccccc4c4nc5ccccc5c2c43)CC1 [Compound 7]
- ED35 [1]: B (B: ≤10 μM)
- ΔTm [2]: A (A: 0-10° C.)

Compound: CN1CCN(C(=O)NCCN2CCCn3c4ccccc4c4nc5ccccc5c2c43)CC1 [Compound 8]
- ED35 [1]: B (B: ≤10 μM)
- ΔTm [2]: B (B: >10° C.)

Compound: O=C(NCCN1CCCn2c3ccccc3c3nc4ccccc4c1c32)C1C[C@@H](O)CN1 (stereo partly drawn) [Compound 9]
- ED35 [1]: B (B: ≤10 μM)
- ΔTm [2]: B (B: >10° C.)

Compound: CN1CCN(C(=O)NCCCN2CCCn3c4ccccc4c4nc5ccccc5c2c43)CC1 [Compound 10]
- ED35 [1]: B (B: ≤10 μM)
- ΔTm [2]: A (A: 0-10° C.)
- concentration of ligand bound to G-quadruplex structure (VEGF G-quadruplex): 2.5 µM
- concentration of ligand bound to G-quadruplex structure (Bcl-2 G-quadruplex): 8.3 µM
- concentration of ligand bound to G-quadruplex structure (hTERT G-quadruplex): 9.5 µM
- concentration of ligand bound to G-quadruplex structure (HIF-1α G-quadruplex): 3.3 µM
- concentration of ligand bound to G-quadruplex structure (Telomeric G-quadruplex): 2.9 µM
- concentration of ligand bound to G-quadruplex structure (PDGFA G-quadruplex): 1.8 µM
- concentration of ligand bound to G-quadruplex structure (PDGF-Rβ G-quadruplex): 8.3 µM
- concentration of ligand bound to G-quadruplex structure (MYC G-quadruplex): 6.8 µM

Compound: O=C(NCCCN1CCCn2c3ccccc3c3nc4ccccc4c1c32)C1C[C@@H](O)CN1 (stereo partly drawn) [Compound 11]
- ED35 [1]: B (B: ≤10 μM)
- ΔTm [2]: B (B: >10° C.)

Compound: c1ccc2c3c4c(nc2c1)c1ccccc1n4CCCN3CCCNc1ncnc2nc[nH]c12 [Compound 12]
- ED35 [1]: B (B: ≤10 μM)
- ΔTm [2]: A (A: 0-10° C.)

Compound: CN1CCN(C(=O)N2C[C@H](O)CC2C(=O)NCCCN2CCCn3c4ccccc4c4nc5ccccc5c2c43)CC1 (stereo partly drawn) [Compound 13]
- ED35 [1]: B (B: ≤10 μM)
- ΔTm [2]: A (A: 0-10° C.)

Compound: NCCCN1CCCn2c3ccccc3c3nc4ccccc4c1c32 [Compound 14]
- ED35 [1]: B (B: ≤10 μM)
- ΔTm [2]: A (A: 0-10° C.)

Compound: c1ccc2c3c4c(nc2c1)c1ccccc1n4CCCN3CCCN1CCCCC1 [Compound 15]
- ED35 [1]: B (B: ≤10 μM)

Compound: OC1CCN(CCN2CCCn3c4ccccc4c4nc5ccccc5c2c43)CC1 [GSA0932]
- luciferase activity of wild type reporter [3]: significantly decreases luciferase activity
- mRNA expression of AR target gene KLK3 (PSA) (KLK3, also known as PSA): suppressed mRNA expression
- IC50 (PC3 cells): 4300 ± 160 nM
- IC50 (VCaP cells): 2800 ± 30 nM
- IC50 [4]: 5400 ± 50 nM
- IC50 (22Rv1 cells): 900 ± 110 nM
- IC50 (LNCaP cells): 1400 ± 260 nM
- IC50 (C4-2 cells): 2000 ± 40 nM
- concentration of maximal inhibitory activity on AR expression (AR; 22RV1 cells): 3 µM
- concentration of maximal inhibitory activity on AR expression (AR; VCaP cells): 5 µM
- AR mRNA (AR mRNA): significantly decreased
- inhibitory activity against AR mRNA expression after NCL knockdown (AR mRNA; LNCaP cells, NCL siRNA versus scrambled, 12 hours): alleviated
- effect on G4-deleted AR reporter (G4-deleted AR reporter): had no effect
- cytotoxic activity, AR-positive versus non-AR expressing cells [5]: stronger cytotoxic activity against AR-positive tumor cells than non-AR expressing cells
- amount of NCL bound to the G4-element of the AR promoter [6]: increases the amount of NCL bound
- expression of ARv7 splice variant (ARv7 splice variant): inhibits the expression

Compound: CN(C)CCN1CCCn2c3ccccc3c3nc4ccccc4c1c32 [GSA1502]
- AR protein expression (AR; LNCaP and C4-2 cells, 24 h, 10 μM): does not affect
- AR mRNA (AR mRNA): does not affect
